According to patent US20250325547A1, “ANTI-SARS-COV-2 DRUG” (KAGOSHIMA UNIVERSITY, priority 2021, published 2025):
Like-named read-outs stand apart in the source and are kept apart here.

What was measured:
SARS-CoV-2 (WK-521) = experiment: microbe, parasite or virus in culture; type: cell-based
in vitro [1] = conditions: African green monkey
SARS-CoV-2 [2] = experiment: Anti-SARS-CoV-2 RNA assay in VeroE6/TMPRSS2 cells; type: cell-based; conditions: Table 5, VeroE6/TMPRSS2 (RNA)
SARS-CoV-2 [3] = experiment: Anti-SARS-CoV-2 RNA assay in Vero cells; type: cell-based; conditions: Table 5, Vero (RNA)
[4] = test system: SARS-CoV-2 (WK-521 strain); conditions: for EC50: HEK293T/ACE2 (RNA), WK-521, MOI 0.1, 3 days
in vitro [5] = conditions: human
[6] = test system: SARS-CoV-2 (WK-521 strain); experiment: microbe, parasite or virus in culture; conditions: Severe acute respiratory syndrome coronavirus 2, HEK-293T, 72 h
[7] = Severe acute respiratory syndrome coronavirus 2, 72 h, read-out: EC50 (50% effective concentration, inhibits cell death induced by SARS-CoV-2 infection by 50%), VeroE6/TMPRSS2 cells, SARS-CoV-2 WK-521, MOI 0.01, 3 days, Tables 1-4
[8] = read-out: EC50 (50% effective concentration, inhibits cell death induced by SARS-CoV-2 infection by 50%), VeroE6/TMPRSS2 cells, SARS-CoV-2 WK-521, MOI 0.01, 3 days, Tables 1-4
[9] = read-out: CC50 (50% toxicity concentration, reduces the number of viable cells in non-infected cells by 50%), non-infected VeroE6/TMPRSS2 cells, 3 days, Tables 1-4
[10] = read-out: EC50 (50% effective concentration, inhibits cell death induced by SARS-CoV-2 infection by 50%)
[11] = Table 5, HEK293T/ACE2, lower row
[12] = Severe acute respiratory syndrome coronavirus 2

| SMILES | EC50 (SARS-CoV-2 (WK-521); [7]) [µM] | CC50 at 3 days (in vitro [1]) [µM] | also measured |
| --- | --- | --- | --- |
| C[C@@H]1CN(Cc2cc(Nc3ncnc4ccccc34)cc(Cl)c2O)[C@@H](C)CN1C (racemic) [Compound 33] | 54.7 | > 100 | – |
| CCN(CC)Cc1cc(Nc2ncnc3ccccc23)cc(Br)c1O [Compound 3] | 23.9 | > 100 | – |
| CCN(CC)Cc1cc(Nc2ncnc3ccccc23)cc(I)c1O [Compound 4] | 16.9 | > 100 | – |
| CCN(CC)Cc1cc(Nc2ncnc3cc(OC)c(OC)cc23)cc(I)c1O [Compound 5] | 31.6 | > 100 | – |
| CCN(CC)Cc1cc(Nc2nc(N(C)C)nc3ccccc23)cc(I)c1O [Compound 6] | 12.9 | 49.9 | – |
| CCN(CC)Cc1cc(Nc2nc(N(C)C)nc3ccccc23)cc(Cl)c1O [Compound 7] | 7.2 | 49.2 | – |
| CCN(C)Cc1cc(Nc2ncnc3ccccc23)cc(I)c1O [Compound 8] | – | – | EC50 (SARS-CoV-2 (WK-521); [8]): 57.6 µM; CC50 (VeroE6/TMPRSS2 cells; [9]): > 100 µM |
| CN(Cc1ccccc1)Cc1cc(Nc2ncnc3ccccc23)cc(I)c1O [Compound 9] | – | – | EC50 (SARS-CoV-2 (WK-521); [8]): 8 µM; CC50 (VeroE6/TMPRSS2 cells; [9]): 38.1 µM |
| CN1CCN(Cc2cc(Nc3ncnc4ccccc34)cc(I)c2O)CC1 [Compound 10] | – | – | EC50 (SARS-CoV-2 (WK-521); [8]): 15.5 µM; CC50 (VeroE6/TMPRSS2 cells; [9]): > 100 µM |
| CCN(Cc1cc(Nc2ncnc3ccccc23)cc(Cl)c1O)C(C)C [Compound 11] | – | – | EC50 (SARS-CoV-2 (WK-521); [10]): 7.6 µM; EC50 (SARS-CoV-2 [2]): 1.9 µM; EC50 (SARS-CoV-2 [3]): 5.5 µM; CC50 (VeroE6/TMPRSS2 cells; Table 5, VeroE6/TMPRSS2 (CPE)): > 100 µM; CC50 (VeroE6/TMPRSS2 cells; [9]): > 100 µM; EC50 [4]: 0.12 µM; CC50 (HEK293T/ACE2 cells; [11]): 85.4 µM |
| CCNCc1cc(Nc2ncnc3ccccc23)cc(I)c1O [Compound 13] | 44.7 | > 100 | – |
| CC(C)N(Cc1cc(Nc2ncnc3ccccc23)cc(Cl)c1O)C(C)C [Compound 15] | – | – | EC50 (SARS-CoV-2 (WK-521); [10]): 3.3 µM; EC50 (SARS-CoV-2 [2]): 1.9 µM; EC50 (SARS-CoV-2 [3]): 1.7 µM; CC50 (VeroE6/TMPRSS2 cells; Table 5, VeroE6/TMPRSS2 (CPE)): > 100 µM; CC50 (VeroE6/TMPRSS2 cells; [9]): > 100 µM; selectivity coefficient (CC50/EC50) [4]: > 833; EC50 [4]: 0.12 µM; CC50 (HEK293T/ACE2 cells; [11]): > 100 µM; CC50 (HEK293T/ACE2 cells; read-out: 50% toxicity concentration (CC50), HEK293T/ACE2 cells, text b80): > 100 µM |
| CC(C)N(Cc1cc(Nc2ncnc3ccccc23)cc(I)c1O)C(C)C [Compound 16] | – | – | EC50 (SARS-CoV-2 (WK-521); [8]): 44.6 µM; CC50 (VeroE6/TMPRSS2 cells; [9]): > 100 µM |
| CCN(Cc1cc(Nc2ncnc3ccccc23)cc(Cl)c1O)C1CCCCC1 [Compound 19] | – | > 100 | EC50 (SARS-CoV-2 (WK-521); Severe acute respiratory syndrome coronavirus 2, Table 5, VeroE6/TMPRSS2 (CPE), read-out: EC50): 3.2 µM; EC50 (SARS-CoV-2 [2]; [12]): 2.9 µM; EC50 (SARS-CoV-2 [3]; [12]): 2.9 µM; CC50 (VeroE6/TMPRSS2 cells; African green monkey, 3 days): > 100 µM; CC50 at 3 days (in vitro [5]): 36.1 µM; EC50 [6]: 0.14 µM |
| CCN(Cc1cc(Nc2ncnc3ccccc23)cc(Cl)c1O)C(C)(C)C [Compound 20] | 3.9 | > 100 | – |
| CCCN(Cc1cc(Nc2ncnc3ccccc23)cc(Cl)c1O)C(C)C [Compound 21] | 11.7 | > 100 | – |
| CC(C)N(Cc1cc(Nc2ncnc3ccccc23)cc(Cl)c1O)C(C)(C)C [Compound 22] | 10.8 | > 100 | – |
| CCCN(CCC)Cc1cc(Nc2ncnc3ccccc23)cc(Cl)c1O [Compound 23] | 15.3 | > 100 | – |
| CC1CC(C)CN(Cc2cc(Nc3ncnc4ccccc34)cc(Cl)c2O)C1 (stereo not drawn) [Compound 24] | 2.1 | > 100 | – |
| CC(C)N(Cc1cc(Nc2ncnc3cc(F)ccc23)cc(Cl)c1O)C(C)C [Compound 25] | 2.5 | > 100 | – |
| CCN(Cc1cc(Nc2ncnc3ccccc23)ccc1O)c1ccc(Cl)cc1 [Compound 26] | 11.7 | > 100 | – |
| CC(C)N(Cc1cc(Nc2ncnc3ccccc23)ccc1O)c1ccc(Cl)cc1 [Compound 27] | 13.9 | > 100 | – |
| CCN(Cc1cc(Nc2ncnc3ccccc23)cc(Cl)c1O)c1ccc(Cl)cc1 [Compound 28] | 10 | > 100 | – |
| CC(C)N(Cc1ccncc1)Cc1cc(Nc2ncnc3ccccc23)cc(Cl)c1O [Compound 29] | 10.6 | > 100 | – |
| CCN(Cc1cc(Nc2ncnc3ccccc23)cc(Cl)c1O)c1ccc(F)c(Cl)c1 [Compound 30] | 10.8 | > 100 | – |
| C[C@H]1C[C@H](C)CN(Cc2cc(Nc3ncnc4ccccc34)cc(Cl)c2O)C1 [Compound 31] | 19.4 | 37.5 | – |
| CCN(Cc1cc(Nc2ncnc3ccccc23)cc(Cl)c1O)CC(C)(C)C [Compound 32] | 20 | 60.2 | – |
| CC(C)N(Cc1cc(Nc2ncnc3ccccc23)cc(Cl)c1O[C@H]1O[C@@H](C)[C@@H](O)[C@@H](O)[C@@H]1O)C(C)C [Compound 34] | 60.2 | > 100 | – |
| CC(C)(C)[C@H](NC(=O)C(F)(F)F)C(=O)N1C[C@H]2[C@@H]([C@H]1C(=O)N[C@H](C#N)C[C@@H]1CCNC1=O)C2(C)C [Nirmatrelvir, reference compound] | – | – | EC50 (SARS-CoV-2 (WK-521); Severe acute respiratory syndrome coronavirus 2, VeroE6/TMPRSS2, 72 h, read-out: EC50 (50% effective concentration, inhibits cell death induced by SARS-CoV-2 infection by 50%)): 8.3 µM; CC50 (in vitro [1]): > 100 µM |
